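Compound exposure: 48 hours, 5 concentrations, 96-well plates. GI50 is the concentration that inhibits growth by half.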 Active and inactive are the calls of the source. Cut-off read from the data, not from the text of the source: active = GI50 up to about 1.1 µM and inactive = higher. Where a SMILES comes first, the peptide text is derived from it. The star is where a group is joined. Cbz = O=C(OCc1ccccc1)*; Boc = CC(C)(C)OC(=O)*; Bn = c1ccc(C*)cc1
Key:
Test in all cases: DTP human tumour cell line panel, 48 h
SNB-19 = test system: SNB-19
TK-10 = test system: TK-10
A549 = test system: A549
HCT-116 = test system: HCT-116
SR = test system: SR
SW-620 = test system: SW-620
NCI-H226 = test system: NCI-H226
NCI/ADR-RES = test system: NCI/ADR-RES
MOLT-4 = test system: MOLT-4
K562 = test system: K562
MDA-MB-435 = test system: MDA-MB-435
UACC-257 = test system: UACC-257
MCF7 = test system: MCF7
HOP-62 = test system: HOP-62
SF-268 = test system: SF-268
COLO 205 = test system: COLO 205
OVCAR-8 = test system: OVCAR-8
SF-295 = test system: SF-295
PC-3 = test system: PC-3

Measured: GI50

Cn1nc(S(N)(=O)=O)s/c1=N/C(N)=S
inactive: SNB-19 > 100 µM | TK-10 > 100 µM | A549 > 100 µM | HCT-116 > 100 µM | SR > 100 µM | SW-620 > 100 µM | NCI-H226 > 100 µM | NCI/ADR-RES > 100 µM | MOLT-4 > 100 µM | K562 > 100 µM | MDA-MB-435 > 100 µM | UACC-257 > 100 µM | MCF7 > 100 µM | HOP-62 > 100 µM | SF-268 > 100 µM | COLO 205 > 100 µM | OVCAR-8 > 100 µM | SF-295 > 100 µM

O=c1c(C(c2ccc([N+](=O)[O-])cc2)c2c(O)oc3ccccc3c2=O)c(O)oc2ccccc12
inactive: SNB-19 > 100 µM | TK-10 > 100 µM | HCT-116 > 100 µM | SW-620 > 100 µM | NCI-H226 > 100 µM | NCI/ADR-RES > 100 µM | MOLT-4 > 100 µM | K562 10 µM | MDA-MB-435 > 100 µM | UACC-257 > 100 µM | HOP-62 > 100 µM | SF-268 > 100 µM | COLO 205 > 100 µM | OVCAR-8 > 100 µM | PC-3 > 100 µM

O=C(N/N=C(COc1ccc(Cl)cc1)\N=C\c1ccncc1)c1ccncc1
inactive: SNB-19 > 100 µM | TK-10 > 100 µM | A549 > 100 µM | HCT-116 > 100 µM | SW-620 > 100 µM | NCI-H226 > 100 µM | NCI/ADR-RES > 100 µM | MOLT-4 > 100 µM | K562 > 100 µM | MDA-MB-435 > 100 µM | UACC-257 > 100 µM | MCF7 > 100 µM | HOP-62 > 100 µM | SF-268 > 100 µM | COLO 205 > 100 µM | OVCAR-8 > 100 µM | SF-295 > 100 µM | PC-3 > 100 µM

CC(=O)Oc1cc2c(n(C)c1=O)-c1ccccc1C2
inactive: SNB-19 > 100 µM | TK-10 51.8 µM | A549 63.7 µM | HCT-116 34.7 µM | SW-620 24.4 µM | NCI-H226 > 100 µM | NCI/ADR-RES 23.2 µM | MOLT-4 66.8 µM | K562 > 100 µM | MDA-MB-435 > 100 µM | UACC-257 > 100 µM | HOP-62 81.7 µM | SF-268 44.1 µM | COLO 205 39.4 µM | OVCAR-8 32 µM | SF-295 > 100 µM | PC-3 40.8 µM

COc1ccc(CC(O)CN2CCOCC2)cc1 (stereo not given)
inactive: SNB-19 > 100 µM | TK-10 > 100 µM | A549 > 100 µM | HCT-116 > 100 µM | SR > 100 µM | SW-620 > 100 µM | NCI-H226 > 100 µM | NCI/ADR-RES > 100 µM | MOLT-4 > 100 µM | K562 > 100 µM | MDA-MB-435 > 100 µM | UACC-257 > 100 µM | HOP-62 > 100 µM | SF-268 > 100 µM | OVCAR-8 > 100 µM | SF-295 > 100 µM | PC-3 > 100 µM

C=CCNC(NCC=C)=C(C(Cl)=C(Cl)Cl)[N+](=O)[O-]
inactive: SNB-19 > 100 µM | A549 > 100 µM | HCT-116 30.4 µM | SW-620 22.9 µM | NCI-H226 > 100 µM | NCI/ADR-RES 43.2 µM | MOLT-4 31.5 µM | K562 16.7 µM | MDA-MB-435 32 µM | UACC-257 > 100 µM | MCF7 35.9 µM | HOP-62 > 100 µM | SF-268 53.8 µM | COLO 205 19.7 µM | OVCAR-8 16.6 µM | SF-295 > 100 µM | PC-3 51.2 µM

N[C@H](Cc1ccc2oc3cc(=O)c4ccccc4c-3nc2c1)C(=O)O
inactive: SNB-19 34.4 µM | TK-10 97.5 µM | A549 33.7 µM | HCT-116 46.3 µM | SR 17.9 µM | SW-620 46.7 µM | NCI-H226 40.8 µM | NCI/ADR-RES > 100 µM | MOLT-4 37.8 µM | K562 26.2 µM | MDA-MB-435 15.5 µM | UACC-257 29.8 µM | MCF7 28.5 µM | HOP-62 46.5 µM | SF-268 79.6 µM | COLO 205 30.3 µM | OVCAR-8 30.5 µM | SF-295 42 µM

COc1cc(-c2oc3c(OC)c(O)c(OC)c(O)c3c(=O)c2OC)cc(O)c1OC
inactive: SNB-19 65.9 µM | TK-10 39.2 µM | A549 46.9 µM | HCT-116 36.1 µM | SW-620 44.3 µM | NCI-H226 > 100 µM | NCI/ADR-RES 17.6 µM | MOLT-4 42.9 µM | K562 26.5 µM | MDA-MB-435 19.6 µM | UACC-257 51.2 µM | MCF7 29.6 µM | HOP-62 40.5 µM | COLO 205 67.8 µM | OVCAR-8 37.9 µM | SF-295 15.8 µM | PC-3 33.3 µM

CC(C)(C)OC(=O)NC(Cc1ccc(OCc2ccccc2)cc1)C(=O)NC(CCCCNC(=O)OCc1ccccc1)C(=O)O (stereo not given) (Boc-Tyr(Bn)-Lys(Cbz)-OH; configuration not given here)
inactive: SNB-19 27.3 µM | TK-10 67.3 µM | A549 > 100 µM | HCT-116 31.3 µM | SR 28.6 µM | SW-620 49 µM | NCI-H226 96.4 µM | MOLT-4 28 µM | K562 42.8 µM | UACC-257 87.9 µM | MCF7 34.6 µM | HOP-62 61.1 µM | COLO 205 29.5 µM | OVCAR-8 35.3 µM | PC-3 68.1 µM

COC(=O)CSc1[nH]c2nc(C)nc(Nc3ccccc3)c2c1C#N
inactive: TK-10 > 10 µM | A549 > 10 µM | SR > 10 µM | SW-620 > 10 µM | MOLT-4 > 10 µM | K562 > 10 µM | MDA-MB-435 > 10 µM | UACC-257 > 10 µM | MCF7 > 10 µM | HOP-62 > 10 µM | SF-268 > 10 µM | COLO 205 > 10 µM | OVCAR-8 > 10 µM | SF-295 > 10 µM | PC-3 > 10 µM

COc1cc2c(cc1OC)C1Cc3ccc(OC)c(OC)c3C[N+]1([O-])CC2 (stereo not given)
inactive: SNB-19 > 100 µM | TK-10 > 100 µM | A549 > 100 µM | HCT-116 > 100 µM | SW-620 > 100 µM | MOLT-4 > 100 µM | K562 > 100 µM | UACC-257 > 100 µM | HOP-62 > 100 µM | SF-268 > 100 µM | OVCAR-8 > 100 µM | SF-295 > 100 µM

N#Cc1c(-c2ccccc2)nc(-c2ccccc2)sc1=S
inactive: SNB-19 > 100 µM | TK-10 > 100 µM | A549 > 100 µM | HCT-116 > 100 µM | SW-620 > 100 µM | NCI-H226 > 100 µM | NCI/ADR-RES > 100 µM | K562 > 100 µM | MDA-MB-435 > 100 µM | UACC-257 > 100 µM | MCF7 > 100 µM | HOP-62 > 100 µM | SF-268 > 100 µM | COLO 205 > 100 µM | OVCAR-8 > 100 µM | SF-295 > 100 µM
